Test results from US20170210778A1, “NOVEL COMPOUNDS” (The Provost, Fellows, Foundation Scholars, and the other …, priority 2014, published 2017).
*1 amine or outer side, *2 acyl side, *3 side chain or, on linkers, in order; H or OH if unused. Where a SMILES comes first, the peptide text is derived from it. [ ]: non-standard residue; d: D form. The star is where a group is joined. d(γGlu) = O=C(O)[C@@H](CCC(=O)[*:2])N[*:1]; Ala(3-yl) = N[C@@H](C*)C(=O)O; dLac = C[C@@H](O)C(=O)O

Columns and labels:
Assay type in all cases: cell-based
murine NOD1 = molecular target: T1, murine NOD1 (Mus musculus, UniProt Q8BHB0); assay: NOD1 functional agonist assay, 293mNOD1-SEAP reporter cells; conditions: 293mNOD1 cells, OD above 3*O.D of negative control
T1 construct: expressed in transfected cells; host or cells: HEK293
T1 sequence (Q8BHB0 1-953): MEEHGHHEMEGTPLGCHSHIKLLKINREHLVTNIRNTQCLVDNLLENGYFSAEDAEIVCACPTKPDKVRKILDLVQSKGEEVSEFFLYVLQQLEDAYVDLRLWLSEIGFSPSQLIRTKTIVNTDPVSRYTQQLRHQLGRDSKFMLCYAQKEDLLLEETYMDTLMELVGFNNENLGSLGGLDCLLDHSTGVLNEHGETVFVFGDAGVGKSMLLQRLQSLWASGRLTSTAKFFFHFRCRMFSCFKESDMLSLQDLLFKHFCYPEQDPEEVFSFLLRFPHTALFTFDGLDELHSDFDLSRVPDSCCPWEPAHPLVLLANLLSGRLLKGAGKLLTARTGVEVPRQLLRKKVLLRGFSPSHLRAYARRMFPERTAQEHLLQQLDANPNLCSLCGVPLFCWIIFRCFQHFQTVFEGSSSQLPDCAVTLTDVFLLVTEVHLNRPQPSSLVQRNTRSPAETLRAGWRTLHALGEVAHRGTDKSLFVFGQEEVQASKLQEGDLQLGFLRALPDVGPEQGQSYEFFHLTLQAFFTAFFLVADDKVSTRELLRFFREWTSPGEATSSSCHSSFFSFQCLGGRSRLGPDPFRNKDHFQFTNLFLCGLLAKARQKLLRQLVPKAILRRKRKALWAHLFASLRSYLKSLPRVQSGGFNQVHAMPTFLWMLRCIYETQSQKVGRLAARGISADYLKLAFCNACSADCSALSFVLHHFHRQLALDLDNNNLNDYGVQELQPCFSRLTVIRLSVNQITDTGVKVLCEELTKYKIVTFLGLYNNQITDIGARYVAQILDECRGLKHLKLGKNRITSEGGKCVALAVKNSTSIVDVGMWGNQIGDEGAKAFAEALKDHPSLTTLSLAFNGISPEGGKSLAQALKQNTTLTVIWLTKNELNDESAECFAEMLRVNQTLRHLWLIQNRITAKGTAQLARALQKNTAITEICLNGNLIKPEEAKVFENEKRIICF
Description: (§1) HEK293 cells were stably transfected with plasmid for the overexpression of the NOD1 genes and a reporter plasmid expressing a secreted embryonic alkaline phosphatase (SEAP) gene under the control of a promoter inducible by the transcription factors NF-κB and AP-1. These cells are referred herein as 293hNOD1-SEAP (for cells overexpressing the human NOD1 gene) and 293mNOD1-SEAP (for cells overexpressing the murine NOD1 gene). Upon NOD1 stimulation, these cells induce the activation of NF-κB and AP-1 and subsequently the secretion of SEAP. The reporter protein is easily detectable and measurable when using QUANTI-Blue™ (InvivoGen, San Diego, Calif.), a medium that turns purple/blue in the presence of SEAP.
(§2) The biological activity of the compounds of the invention tested using 293hNOD1 and 293mNOD1 cells. SEAP expression was measured using the commercially available SEAP detection kit (HEK-Blue™ Detection, InvivoGen). The SEAP activity in cells was quantified using the microplate reader (FLUOStar OPTIMA, BMG laboratories), the absorbance values were read using filter with excitation at 620 nm and emission at 655 nm. The results provided in Table 2 were expressed as the concentration were a significant mean optical density (OD) can be observed (above 3*O.D of negative control). As a positive control, the NOD1 pathway was stimulated with commercially available iE-DAP (InvivoGen) and C12-iE-DAP (an acylated derivative of DAP; InvivoGen). As a negative control endotoxin-free water was used. Additionally, 293 cells expressing the SEAP gene but not the NOD1 gene were used as a control.

human NOD1 = molecular target: T2, human NOD1 (Homo sapiens, UniProt Q9Y239); assay: NOD1 functional agonist assay, 293hNOD1-SEAP reporter cells; conditions: 293hNOD1 cells, OD above 3*O.D of negative control
T2 construct: expressed in transfected cells; host or cells: HEK293
T2 sequence (Q9Y239 1-953): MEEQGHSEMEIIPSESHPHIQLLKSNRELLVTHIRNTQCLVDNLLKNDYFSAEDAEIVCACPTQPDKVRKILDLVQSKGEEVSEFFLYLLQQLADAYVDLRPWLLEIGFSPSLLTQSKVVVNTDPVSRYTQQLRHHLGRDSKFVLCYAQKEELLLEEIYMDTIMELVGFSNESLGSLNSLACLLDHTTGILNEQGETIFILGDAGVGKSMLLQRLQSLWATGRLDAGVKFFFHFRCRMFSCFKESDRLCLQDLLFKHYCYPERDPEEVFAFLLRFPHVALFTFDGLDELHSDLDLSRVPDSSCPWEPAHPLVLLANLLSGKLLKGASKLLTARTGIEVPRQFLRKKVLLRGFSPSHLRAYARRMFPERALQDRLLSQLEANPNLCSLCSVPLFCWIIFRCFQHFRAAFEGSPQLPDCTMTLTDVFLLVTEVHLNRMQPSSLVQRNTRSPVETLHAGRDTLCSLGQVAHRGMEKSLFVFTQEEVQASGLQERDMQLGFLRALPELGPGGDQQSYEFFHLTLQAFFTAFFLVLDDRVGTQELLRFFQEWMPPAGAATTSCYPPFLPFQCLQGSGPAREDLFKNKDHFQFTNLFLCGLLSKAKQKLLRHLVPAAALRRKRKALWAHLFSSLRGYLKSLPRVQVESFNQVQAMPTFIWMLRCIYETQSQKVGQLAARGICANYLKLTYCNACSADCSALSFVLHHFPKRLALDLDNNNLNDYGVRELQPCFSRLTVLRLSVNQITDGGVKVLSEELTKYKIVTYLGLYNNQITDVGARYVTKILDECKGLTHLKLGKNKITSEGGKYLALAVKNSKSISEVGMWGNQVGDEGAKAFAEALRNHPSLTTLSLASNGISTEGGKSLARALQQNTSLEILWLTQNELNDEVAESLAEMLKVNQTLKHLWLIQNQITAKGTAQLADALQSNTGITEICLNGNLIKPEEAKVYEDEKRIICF
Description: as §1, §2

hNOD2 = molecular target: T3, hNOD2 (Homo sapiens, UniProt Q9HC29); assay: NOD2 functional agonist assay, 293hNOD2-SEAP reporter cells; conditions: 293hNOD2 cells, OD above 3*O.D of negative control
T3 construct: expressed in transfected cells; host or cells: HEK293
T3 sequence (Q9HC29 whole entry): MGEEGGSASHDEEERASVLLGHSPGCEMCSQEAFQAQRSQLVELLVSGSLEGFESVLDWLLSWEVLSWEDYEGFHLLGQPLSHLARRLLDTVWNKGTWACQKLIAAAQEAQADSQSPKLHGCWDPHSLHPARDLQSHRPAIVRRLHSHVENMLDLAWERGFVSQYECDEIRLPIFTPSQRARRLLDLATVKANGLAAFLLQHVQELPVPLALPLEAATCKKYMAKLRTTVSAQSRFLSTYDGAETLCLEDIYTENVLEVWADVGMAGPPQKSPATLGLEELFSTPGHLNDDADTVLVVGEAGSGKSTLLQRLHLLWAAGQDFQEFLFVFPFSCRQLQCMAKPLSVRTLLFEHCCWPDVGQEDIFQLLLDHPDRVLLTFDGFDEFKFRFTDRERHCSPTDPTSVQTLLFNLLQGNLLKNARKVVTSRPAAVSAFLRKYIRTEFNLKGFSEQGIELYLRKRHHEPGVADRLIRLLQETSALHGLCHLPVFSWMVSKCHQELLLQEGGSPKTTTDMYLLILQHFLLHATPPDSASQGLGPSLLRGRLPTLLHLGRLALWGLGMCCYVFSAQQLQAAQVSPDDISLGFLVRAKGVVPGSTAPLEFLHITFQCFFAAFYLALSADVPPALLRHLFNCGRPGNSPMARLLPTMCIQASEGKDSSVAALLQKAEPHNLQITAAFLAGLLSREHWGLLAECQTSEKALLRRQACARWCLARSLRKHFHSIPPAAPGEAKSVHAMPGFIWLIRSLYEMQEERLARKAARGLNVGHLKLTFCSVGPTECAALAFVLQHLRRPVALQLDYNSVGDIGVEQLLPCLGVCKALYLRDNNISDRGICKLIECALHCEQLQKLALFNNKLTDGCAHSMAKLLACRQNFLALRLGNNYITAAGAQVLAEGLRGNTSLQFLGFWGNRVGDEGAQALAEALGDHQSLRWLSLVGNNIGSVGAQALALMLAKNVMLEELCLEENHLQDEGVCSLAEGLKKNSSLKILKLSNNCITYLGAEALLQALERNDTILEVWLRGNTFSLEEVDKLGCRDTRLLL
Description: as §1, with “NOD2” for “NOD1”, “293hNOD2-SEAP.” for “293hNOD1-SEAP (for cells overexpressing the human NOD1 gene) and 293mNOD1-SEAP (for cells overexpressing the murine NOD1 gene).”
The biological activity of the compounds using 293hNOD2 cells. SEAP expression was measured using the commercially available SEAP detection kit (HEK-Blue™ Detection, InvivoGen). The SEAP activity in cells was quantified using the microplate reader (FLUOStar OPTIMA, BMG laboratories), the absorbance values were read using filter with excitation at 620 nm and emission at 655 nm. The results provided in Table 3 were expressed as the concentration were a significant mean optical density (OD) can be observed (above 3*O.D of negative control) as the mean optical density. As a positive control, the NOD2 pathway was stimulated with commercially available MDP (InvivoGen) and M-triDAP (InvivoGen). As a negative control endotoxin-free water was used. Additionally, 293 cells expressing the SEAP gene but not the NOD2 gene were used as a control.

mNod1: concentration where a significant mean optical density (OD) can be observed (murine NOD1)	hNod1: concentration where a significant mean optical density (OD) can be observed (human NOD1)	SMILES	hNod2: concentration where a significant mean optical density (OD) can be observed (hNOD2)
0.1 µg/mL	10 µg/mL	C[C@H](N)C(=O)N[C@H](CCC(=O)N[C@H](CSC[C@H](N)C(=O)O)C(=O)NCC(=O)O)C(=O)O [Example 26, N^2-(L-alanyl)-N^5-((S)-3-(((R)-2-amino-2-carboxyethyl)thio)-1-((carboxymethyl)amino)-1-oxopropan-2-yl)-D-glutamine]	–
1 µg/mL	1 µg/mL	CCCCCCC(=O)N[C@@H](C)C(=O)N[C@H](CCC(=O)N[C@H](CSC[C@H](N)C(=O)O)C(=O)NCC(=O)O)C(=O)O [Example 27, N^5-((S)-3-(((R)-2-amino-2-carboxyethyl)thio)-1-((carboxymethyl)amino)-1-oxopropan-2-yl)-N^2-(heptanoyl-L-alanyl)-D-glutamine]	–
0.001 µg/mL	0.001 µg/mL	CCCCCCCCCCCC(=O)N[C@@H](C)C(=O)N[C@H](CCC(=O)N[C@H](CSC[C@H](N)C(=O)O)C(=O)NCC(=O)O)C(=O)O [Example 28, N^5-((S)-3-(((R)-2-amino-2-carboxyethyl)thio)-1-((carboxymethyl)amino)-1-oxopropan-2-yl)-N^2-(dodecanoyl-L-alanyl)-D-glutamine]	–
10 µg/mL	10 µg/mL	C[C@H](NC(=O)[C@@H](C)O)C(=O)N[C@H](CCC(=O)N[C@H](CSC[C@H](N)C(=O)O)C(=O)NCC(=O)O)C(=O)O [Example 30, N^5-((S)-3-(((R)-2-amino-2-carboxyethyl)thio)-1-((carboxymethyl)amino)-1-oxopropan-2-yl)-N^2-(((R)-2-hydroxypropanoyl)-L-alanyl)-D-glutamine] (H-[dLac]A[d(γGlu)][dC](Ala(3-yl))G-OH)	–
1 µg/mL	1 µg/mL	CC(=O)N[C@H]1[C@@H](OCc2ccccc2)O[C@H](CO)[C@@H](O)[C@@H]1O[C@H](C)C(=O)N[C@@H](C)C(=O)N[C@H](CCC(=O)N[C@H](CSC[C@H](N)C(=O)O)C(=O)O)C(=O)O [Example 31, N^2-(((R)-2-(((2S,3R,4R,5S,6R)-3-acetamido-2-(benzyloxy)-5-hydroxy-6-(hydroxymethyl)tetrahydro-2H-pyran-4-yl)oxy)propanoyl)-L-alanyl)-N^5-((S)-2-(((R)-2-amino-2-carboxyethyl)thio)-1-carboxyethyl)-D-glutamine]	0.1 µg/mL
10 µg/mL	10 µg/mL	N[C@H](CCC(=O)N[C@@H](COC[C@@H](N)C(=O)O)C(=O)O)C(=O)O [Example 34, N^5-((S)-2-((R)-2-amino-2-carboxyethoxy)-1-carboxyethyl)-D-glutamine]	–
0.01 µg/mL	0.01 µg/mL	CCCCCCCCCCCCCC(=O)N[C@H](CCC(=O)N[C@@H](COC[C@@H](N)C(=O)O)C(=O)O)C(=O)O [Example 35, N^5-((S)-2-((R)-2-amino-2-carboxyethoxy)-1-carboxyethyl)-N^2-tetradecanoyl-D-glutamine]	–
100 µg/mL	100 µg/mL	C[C@H](N)C(=O)N[C@H](CCC(=O)N[C@@H](COC[C@@H](N)C(=O)O)C(=O)O)C(=O)O [Example 36, N^2-(L-alanyl)-N^5-((S)-2-((R)-2-amino-2-carboxyethoxy)-1-carboxyethyl)-D-glutamine]	–

SMILES	mNod1: concentration where a significant mean optical density (OD) can be observed (murine NOD1)	hNod1: concentration where a significant mean optical density (OD) can be observed (human NOD1)	hNod2: concentration where a significant mean optical density (OD) can be observed (hNOD2)
CC(=O)N[C@H]1[C@@H](OCc2ccccc2)O[C@H](CO)[C@@H](O)[C@@H]1O[C@H](C)C(=O)N[C@@H](C)C(=O)N[C@H](CCC(=O)N[C@H](CSC[C@H](N)C(=O)O)C(=O)NCC(=O)O)C(=O)O [Example 32, N^2-(((R)-2-(((2S,3R,4R,5S,6R)-3-acetamido-2-(benzyloxy)-5-hydroxy-6-(hydroxymethyl)tetrahydro-2H-pyran-4-yl)oxy)propanoyl)-L-alanyl)-N^5-((S)-3-(((R)-2-amino-2-carboxyethyl)thio)-1-((carboxymethyl)amino)-1-oxopropan-2-yl)-D-glutamine]	0.1 µg/mL	0.1 µg/mL	0.1 µg/mL
